Experimental findings from US20180000085A1, “USE OF PICOLINAMIDE COMPOUNDS WITH FUNGICIDAL ACTIVITY” (DOW AGROSCIENCES LLC, priority 2014, published 2018) are described below.

The test system of one assay is Zymoseptoria tritici. Description: Leaf blotch of wheat (SEPTTR) disease control on wheat seedlings. It counts as in vivo. The arrangement: key to SEPTTR 1DP, HV activity at 100 ppm (% control rating) / SEPTTR 3DC, HV activity at 100 ppm (% control rating) / SEPTTR disease control, 1DP / SEPTTR disease control, 3DC / SEPTTR 1DP disease control rating, HV activity / SEPTTR 3DC disease control rating, HV activity / SEPTTR 3DC, LV activity at 125.1 g/H (% Control rating) / SEPTTR 1DP, LV activity at 125.1 g/H (% Control rating) / SEPTTR 1DP disease control rating, LV activity at 125.1 g/H / SEPTTR 3DC disease control rating, LV activity at 125.1 g/H / SEPTTR 3DC disease control rating, HV activity at 100 ppm / SEPTTR 1DP disease control rating, HV activity at 100 ppm / HV activity at 100 ppm SEPTTR 3DC (disease control rating) / HV activity at 100 ppm SEPTTR 1DP (disease control rating) / LV activity at 125.1 g/H SEPTTR 1DP (disease control rating) / LV activity at 125.1 g/H SEPTTR 3DC (disease control rating): A: > 80; B: ≤ 80; C: Not Tested; D: No Activity Observed in the Reported Assay. Conditions: for SEPTTR 1DP disease control rating, HV activity at 100 ppm: 1 day protectant; for SEPTTR 3DC disease control rating, HV activity at 100 ppm: 3 day curative; for SEPTTR 1DP disease control rating, HV activity / SEPTTR 3DC disease control rating, HV activity: HV application at 100 ppm.

The test system of the next assay is Puccinia triticina. The assay can be described thus: Wheat brown rust (PUCCRT) disease control on wheat seedlings. Type of assay: in vivo. The arrangement: key to PUCCRT 3DC, HV activity at 100 ppm (% control rating) / PUCCRT disease control, 3DC / PUCCRT 1DP disease control rating, HV activity / PUCCRT 3DC disease control rating, HV activity / PUCCRT 3DC, LV activity at 125.1 g/H (% Control rating) / PUCCRT 1DP, LV activity at 125.1 g/H (% Control rating) / PUCCRT 3DC disease control rating, LV activity at 125.1 g/H / PUCCRT 1DP disease control rating, LV activity at 125.1 g/H / PUCCRT 3DC disease control rating, HV activity at 100 ppm / PUCCRT 1DP disease control rating, HV activity at 100 ppm / HV activity at 100 ppm PUCCRT 3DC (disease control rating) / LV activity at 125.1 g/H PUCCRT 1DP (disease control rating) / LV activity at 125.1 g/H PUCCRT 3DC (disease control rating): A: > 80; B: ≤ 80; C: Not Tested; D: No Activity Observed in the Reported Assay. Conditions: for PUCCRT 1DP disease control rating, HV activity at 100 ppm: 1 day protectant; for PUCCRT 3DC disease control rating, HV activity at 100 ppm: 3 day curative; for PUCCRT 1DP disease control rating, HV activity / PUCCRT 3DC disease control rating, HV activity: HV application at 100 ppm.

The mark [1] stands for this setting: low volume application, 125.1 g/H, 1 Day Protectant.
The mark [2] stands for this setting: low volume application, 125.1 g/H, 3 Day Curative.
Setting [3] is: high volume application, 100 ppm.
The mark [4] stands for this setting: 1 Day Protectant, wheat leaf blotch.
Setting [5] is: 3 Day Curative, wheat leaf blotch.
[6] abbreviates: 1 Day Protectant, wheat brown rust.
The mark [7] stands for this setting: 3 Day Curative, wheat brown rust.
[8] abbreviates: HV activity at 100 ppm, 1 Day Protectant, wheat.
[9] abbreviates: HV activity at 100 ppm, 3 Day Curative, wheat.
Where [10] appears, read: high volume application, 100 ppm, 1DP.
Setting [11] is: high volume application, 100 ppm, 3DC.

Each structure is given as a SMILES string.

Take `COc1ccnc(C(=O)NC(C)C(=O)OC(C)COCC2CC2)c1OCOC(C)=O` (stereo not drawn) [Cmpd 527]: the “SEPTTR 1DP, LV activity at 125.1 g/H (% Control rating)” value in the assay with Zymoseptoria tritici (setting [1]) is recorded as “D”. Also, the “SEPTTR 3DC, LV activity at 125.1 g/H (% Control rating)” value in the assay on Zymoseptoria tritici (setting [2]) is given as “A (> 80)”. Further, in the assay with Puccinia triticina (setting [1]), the “PUCCRT 1DP, LV activity at 125.1 g/H (% Control rating)” value is listed as “B (≤ 80)”. Also, the “PUCCRT 3DC, LV activity at 125.1 g/H (% Control rating)” value in the assay with Puccinia triticina (setting [2]) is “B (≤ 80)”.

Turning to `CCCO[C@@H]([C@H](C)OC(=O)[C@H](C)NC(=O)c1nccc(OC)c1OCOC(C)=O)[C@H](CC)Oc1ccccc1` [Cmpd 510], the “SEPTTR 1DP, LV activity at 125.1 g/H (% Control rating)” value in the assay with Zymoseptoria tritici (setting [1]) is “A (> 80)”. Further, the “SEPTTR 3DC, LV activity at 125.1 g/H (% Control rating)” value in the assay with Zymoseptoria tritici (setting [2]) is on record as “B (≤ 80)”. Moreover, the “PUCCRT 1DP, LV activity at 125.1 g/H (% Control rating)” value in the assay on Puccinia triticina (setting [1]) is reported as “A (> 80)”. In the assay on Puccinia triticina (setting [2]), the “PUCCRT 3DC, LV activity at 125.1 g/H (% Control rating)” value is given as “A (> 80)”.

As for `CCC(CC)[C@@H](Oc1ccc(Cl)cc1Cl)[C@H](C)OC(=O)[C@@H](NC(=O)c1nccc(OC)c1OCOC(C)=O)C(C)C` [Cmpd 649], the “SEPTTR 1DP, LV activity at 125.1 g/H (% Control rating)” value in the assay with Zymoseptoria tritici (setting [1]) was “D”. Also, the “SEPTTR 3DC, LV activity at 125.1 g/H (% Control rating)” value in the assay with Zymoseptoria tritici (setting [2]) was “D”. For the same molecule, the “PUCCRT 1DP, LV activity at 125.1 g/H (% Control rating)” value in the assay on Puccinia triticina (setting [1]) was “A (> 80)”. For the same molecule, the “PUCCRT 3DC, LV activity at 125.1 g/H (% Control rating)” value with Puccinia triticina (setting [2]) is given as “B (≤ 80)”.

As for `CCC(CC)[C@@H](Oc1ccc(C(F)(F)F)cc1)[C@H](C)OC(=O)[C@H](C)NC(=O)c1nccc(OC)c1OC(C)=O` [Cmpd 605], the “SEPTTR 1DP, LV activity at 125.1 g/H (% Control rating)” value in the assay with Zymoseptoria tritici (setting [1]) is “A (> 80)”. For the same molecule, in the assay on Zymoseptoria tritici (setting [2]), the “SEPTTR 3DC, LV activity at 125.1 g/H (% Control rating)” value is “B (≤ 80)”. The “PUCCRT 1DP, LV activity at 125.1 g/H (% Control rating)” value with Puccinia triticina (setting [1]) was “A (> 80)”. For the same molecule, in the assay on Puccinia triticina (setting [2]), the “PUCCRT 3DC, LV activity at 125.1 g/H (% Control rating)” value is listed as “B (≤ 80)”.

For `COc1ccnc(C(=O)NC(C)C(=O)OC(C)COC(C)(C)C)c1OCOC(C)=O` (stereo not drawn) [Cmpd 535], the “SEPTTR 1DP, LV activity at 125.1 g/H (% Control rating)” value with Zymoseptoria tritici (setting [1]) is reported as “D”. The “SEPTTR 3DC, LV activity at 125.1 g/H (% Control rating)” value in the assay with Zymoseptoria tritici (setting [2]) is reported as “B (≤ 80)”. Also, in the assay on Puccinia triticina (setting [1]), the “PUCCRT 1DP, LV activity at 125.1 g/H (% Control rating)” value was “D”. In addition, in the assay with Puccinia triticina (setting [2]), the “PUCCRT 3DC, LV activity at 125.1 g/H (% Control rating)” value is given as “B (≤ 80)”.

On to `COc1ccnc(C(=O)NC(C)C(=O)OC(C)(C)C(Oc2ccccc2)C(C)C)c1O` (stereo not drawn) [Cmpd 831], for which, in the assay on Zymoseptoria tritici (setting [3]), the “SEPTTR 1DP disease control rating, HV activity at 100 ppm” value is “D” and the “SEPTTR 3DC disease control rating, HV activity at 100 ppm” value is given as “D”. Besides, in the assay on Puccinia triticina (setting [3]), the “PUCCRT 1DP disease control rating, HV activity at 100 ppm” value is given as “B (≤ 80)” and the “PUCCRT 3DC disease control rating, HV activity at 100 ppm” value is “D”.

`COc1ccnc(C(=O)N[C@@H](C)C(=O)O[C@@H](C)[C@H](OCC2CC2)C(C)(C)C)c1OC(C)=O` [Cmpd 1071]: the “LV activity at 125.1 g/H SEPTTR 1DP (disease control rating)” value with Zymoseptoria tritici (low volume application, 125.1 g/H, 1 Day Protectant, wheat leaf blotch) is recorded as “B (≤ 80)”. Further, the “LV activity at 125.1 g/H SEPTTR 3DC (disease control rating)” value in the assay with Zymoseptoria tritici (low volume application, 125.1 g/H, 3 Day Curative, wheat leaf blotch) is given as “B (≤ 80)”. For the same molecule, in the assay with Puccinia triticina (low volume application, 125.1 g/H, 1 Day Protectant, wheat brown rust), the “LV activity at 125.1 g/H PUCCRT 1DP (disease control rating)” value is “A (> 80)”. Also, the “LV activity at 125.1 g/H PUCCRT 3DC (disease control rating)” value in the assay with Puccinia triticina (low volume application, 125.1 g/H, 3 Day Curative, wheat brown rust) is on record as “A (> 80)”.

As for `CCC(C)C(NC(=O)c1nccc(OC)c1O)C(=O)OC(C)C(Oc1ccc(C(F)(F)F)cc1)C(C)C` (stereo not drawn) [Cmpd 396], in the assay with Zymoseptoria tritici (setting [4]), the “SEPTTR 1DP disease control rating, HV activity” value was “B (≤ 80)”. Moreover, in the assay on Zymoseptoria tritici (setting [5]), the “SEPTTR 3DC disease control rating, HV activity” value is “B (≤ 80)”. Further, in the assay with Puccinia triticina (setting [6]), the “PUCCRT 1DP disease control rating, HV activity” value is reported as “B (≤ 80)”. The “PUCCRT 3DC disease control rating, HV activity” value in the assay with Puccinia triticina (setting [7]) is “D”.

For the molecule `CCCOC(CC)C(Oc1ccccc1)C(C)OC(=O)C(CC)NC(=O)c1nccc(OC)c1O` (stereo not drawn) [Cmpd 296], the “SEPTTR disease control, 1DP” value in the assay on Zymoseptoria tritici (setting [8]) is listed as “B (≤ 80)”. Also, the “SEPTTR disease control, 3DC” value in the assay on Zymoseptoria tritici (setting [9]) is “B (≤ 80)”. Further, in the assay with Zymoseptoria tritici (setting [4]), the “SEPTTR 1DP disease control rating, HV activity” value is given as “B (≤ 80)”. Besides, the “SEPTTR 3DC disease control rating, HV activity” value in the assay with Zymoseptoria tritici (setting [5]) is reported as “B (≤ 80)”. Also, the “SEPTTR 1DP, HV activity at 100 ppm (% control rating)” value with Zymoseptoria tritici (setting [10]) is “B (≤ 80)”. Moreover, the “SEPTTR 3DC, HV activity at 100 ppm (% control rating)” value in the assay with Zymoseptoria tritici (setting [11]) is “B (≤ 80)”. Also, in the assay on Puccinia triticina (setting [8]), the “PUCCRT disease control, 1DP” value is listed as “B (≤ 80)”. For the same molecule, the “PUCCRT disease control, 3DC” value in the assay with Puccinia triticina (setting [9]) is recorded as “A (> 80)”. Further, the “PUCCRT 1DP disease control rating, HV activity” value in the assay on Puccinia triticina (setting [6]) is on record as “B (≤ 80)”. In addition, the “PUCCRT 3DC disease control rating, HV activity” value in the assay with Puccinia triticina (setting [7]) is recorded as “A (> 80)”. The “PUCCRT 1DP, HV activity at 100 ppm (% control rating)” value in the assay on Puccinia triticina (setting [10]) is recorded as “B (≤ 80)”. In addition, in the assay with Puccinia triticina (setting [11]), the “PUCCRT 3DC, HV activity at 100 ppm (% control rating)” value is reported as “A (> 80)”.

As for `COc1ccnc(C(=O)N[C@@H](C)C(=O)O[C@@H](C)[C@H](OCC(C)C)C2CCCC2)c1O` [Cmpd 844], in the assay with Zymoseptoria tritici (setting [3]), the “SEPTTR 1DP disease control rating, HV activity at 100 ppm” value is on record as “B (≤ 80)” and the “SEPTTR 3DC disease control rating, HV activity at 100 ppm” value was “A (> 80)”. Also, in the assay on Puccinia triticina (setting [3]), the “PUCCRT 1DP disease control rating, HV activity at 100 ppm” value is “A (> 80)” and the “PUCCRT 3DC disease control rating, HV activity at 100 ppm” value is on record as “A (> 80)”.
